According to the supplement of paper PMC10627819:

Tests used:
[1] = test system: S. pneumoniae D39V; assay: fitness (endpoint OD595 vs no drug) (fraction); higher = more growth
Procedure, shortened: (§1)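 Fitness was measured as bacterial growth in 384-well plates inoculated at OD595 0.01 (30 µl, or 55 µl for S. pneumoniae). Media were TSB, LB Lennox or CY, at 37 °C. OD595 was read every 30 min for 14 h and background-subtracted against the first reading. Fitness is OD595 at the transition into stationary phase divided by the robust mean of no-drug control wells, capped at 1.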

[2] = test system: B. subtilis 168; assay: as above
Procedure, shortened: as §1
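Also: OD595 on entry to stationary phase over no-drug wells; at most 1.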

CC(=O)Oc1ccccc1C(=O)O [Acetylsalicylic acid] + C[C@H]1c2cccc(O)c2C(=O)C2=C(O)[C@]3(O)C(=O)C(C(N)=O)=C(O)[C@@H](N(C)C)[C@@H]3[C@@H](O)[C@@H]21 [Doxycycline]
fitness, [1], one replicate
Settings | first compound 250 µg/mL | first compound 500 µg/mL | first compound 1000 µg/mL
partner 0.003875 µg/mL | ≥ 1 | ≥ 1 | 0.95
partner 0.00775 µg/mL | 0.998 | ≥ 1 | ≥ 1

fitness, [1]
Settings | first compound 250 µg/mL | first compound 500 µg/mL | first compound 1000 µg/mL
partner 0.0155 µg/mL | 0.907 | 0.941 | 0.842
partner 0.031 µg/mL | 0.825 | 0.822 | 0.668

CN(C)[C@@H]1C(O)=C(C(N)=O)C(=O)[C@@]2(O)C(O)=C3C(=O)c4c(O)ccc(Cl)c4[C@@](C)(O)[C@H]3C[C@@H]12 [Chlortetracycline] + C[C@@H](O)[C@H]1C(=O)N2C(C(=O)O)=C(SCCNC=N)C[C@H]12 [Imipenem]
fitness, [1]
Settings | first compound 0.012 µg/mL | first compound 0.024 µg/mL | first compound 0.048 µg/mL | first compound 0.375 µg/mL | first compound 0.75 µg/mL | first compound 1.5 µg/mL
partner 0.005 µg/mL | – | – | – | 0.0486 | 0.0409 | 0.0284
partner 0.0065 µg/mL | 0.894 | 0.799 | 0.686 | – | – | –
partner 0.01 µg/mL | – | – | – | 0.0501 | 0.0583 | 0.0373
partner 0.013 µg/mL | 0.863 | 0.865 | 0.837 | – | – | –
partner 0.02 µg/mL | – | – | – | 0.0339 | 0.065 | 0.065
partner 0.026 µg/mL | 0.724 | 0.761 | 0.724 | – | – | –

CN(C)[C@@H]1C(O)=C(C(N)=O)C(=O)[C@@]2(O)C(O)=C3C(=O)c4c(O)ccc(Cl)c4[C@@](C)(O)[C@H]3C[C@@H]12 [Chlortetracycline] + CN(C)C(=O)C(CCN1CCC(O)(c2ccc(Cl)cc2)CC1)(c1ccccc1)c1ccccc1 [Loperamide]
Settings | fitness
[1], first compound 0.012 µg/mL, partner 17.14 µg/mL | 0.967
[1], first compound 0.012 µg/mL, partner 34.28 µg/mL | 0.899
[1], first compound 0.024 µg/mL, partner 17.14 µg/mL | 0.926
[1], first compound 0.024 µg/mL, partner 34.28 µg/mL | 0.909
[1], first compound 0.048 µg/mL, partner 17.14 µg/mL | 0.829
[1], first compound 0.048 µg/mL, partner 34.28 µg/mL | 0.844
[1], first compound 0.375 µg/mL, partner 20 µg/mL | 0.0446
[1], first compound 0.375 µg/mL, partner 40 µg/mL | 0.0664
[1], first compound 0.375 µg/mL, partner 80 µg/mL | 0.065
[1], first compound 0.75 µg/mL, partner 20 µg/mL | 0.0563
[1], first compound 0.75 µg/mL, partner 40 µg/mL | 0.0762
[1], first compound 0.75 µg/mL, partner 80 µg/mL | 0.0821
[1], first compound 1.5 µg/mL, partner 20 µg/mL | 0.04
[1], first compound 1.5 µg/mL, partner 40 µg/mL | 0.0491
[1], first compound 1.5 µg/mL, partner 80 µg/mL | 0.0392
[2], first compound 0.0475 µg/mL, partner 50 µg/mL | 0.0353
[2], first compound 0.0475 µg/mL, partner 100 µg/mL | 0.0088
[2], first compound 0.095 µg/mL, partner 25 µg/mL | 0.0158
[2], first compound 0.095 µg/mL, partner 50 µg/mL | 0.0367
[2], first compound 0.095 µg/mL, partner 100 µg/mL | 0.0243
[2], first compound 0.19 µg/mL, partner 25 µg/mL | 0.0386
[2], first compound 0.19 µg/mL, partner 50 µg/mL | 0.05
[2], first compound 0.19 µg/mL, partner 100 µg/mL | 0.0328

[1], partner 68.57 µg/mL, one replicate
Settings | fitness
first compound 0.012 µg/mL | 0.908
first compound 0.024 µg/mL | 0.92
first compound 0.048 µg/mL | 0.8
